Drawing on PubChem BioAssay (NCI), this text covers TGI and GI50 for 22 compounds.

Assay in all cases: NCI anticancer screen, dose series, 48 h
Test [1] has as its system PC-3 prostate.
Test [2] has as its system RXF 393 renal.
For test [3], the system named is CAKI-1 renal.
Test [4] has as its system TK-10 renal.
Test [5] relates to MALME-3M melanoma.
Test [6] relates to NCI-H460 lung.
Test [7] concerns MCF7 breast.
Test [8] relates to SF-268 CNS.

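Results reflect a 48-hour exposure of cells in 96-well plates to compound at five concentrations. GI50 = concentration required for 50% inhibition of growth. TGI is the concentration that stops growth completely.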

With `Cn1c(=O)c2[nH]c(SCCN3CCOCC3)nc2n(C)c1=S`, the TGI in test [1], in test [2], in test [3], in test [4], in test [5] and in test [6] was more than 100 µM in each case. Also, the TGI in test [7] and in test [8] was more than 100 µM in each case.

Regarding `O=C(Nc1ccc(F)cc1F)c1cc(Cl)ccc1O`, the GI50 was 1.88 µM in test [1]; 1.37 µM in test [2]; 1.31 µM in test [3]; 5.53 µM in test [4]; 0.782 µM in test [5]; 1.42 µM in test [6]. For the same compound, the GI50 is 2.05 µM in test [7] and 1.3 µM in test [8]. Moreover, the TGI stood at 41.2 µM in test [1]; 5.1 µM in test [2]; 5.51 µM in test [3]; 31.8 µM in test [4]; 4.76 µM in test [5]; 19.2 µM in test [6]. Moreover, the TGI was more than 100 µM in test [7] and 11.6 µM in test [8].

Take `O=C(/C=C/c1ccc(O)c(O)c1)NCc1c[nH]c2ccccc12`: the GI50 was 71.3 µM in test [1]; more than 100 µM in test [2]; 27.9 µM in test [3]; 18.1 µM in test [4]; 29.2 µM in test [5]; 50.1 µM in test [6]. In addition, the values for the GI50 in test [7] and in test [8] were 70.3 µM and 63.8 µM, respectively. The TGI in test [1], in test [2], in test [3], in test [4], in test [5] and in test [6] was more than 100 µM throughout. Also, the TGI in test [7] and in test [8] was more than 100 µM throughout.

For the compound `C[Si](C)(c1ccc(C(=O)O)cc1)c1ccc(C(=O)O)cc1`, the TGI in test [1], in test [2], in test [3], in test [4], in test [5] and in test [6] was more than 100 µM throughout. The TGI in test [7] and in test [8] was more than 100 µM in each case.

For the compound `CCCCCN(CCCCC)CC(O)c1cc(Cl)ccc1OC` (centres undefined), the GI50 in test [1] is 11.3 µM; in test [2] it was 2.58 µM; in test [3], 2.81 µM; in test [4], 10.9 µM; in test [5], 6.29 µM; in test [6] it was 4.7 µM. For the same compound, the results for the GI50 in test [7] and in test [8] were 0.528 µM and 11.4 µM, respectively. For the same compound, the TGI in test [1] is 26.8 µM; in test [2] it was 7.87 µM; in test [3], 16.6 µM; in test [4] it was 24.1 µM; in test [5] it was 21.3 µM; in test [6], 18 µM. Besides, the TGI in test [7] stood at 2.66 µM; in test [8], 24.4 µM.

`O=[N+]([O-])c1nccn1CC(O)CN1CCCCC1` (centres undefined): the TGI in test [1], in test [2], in test [3], in test [4], in test [5] and in test [6] was more than 100 µM in each case. In addition, the TGI in test [7] and in test [8] was more than 100 µM each time.

Regarding `CCN1CCN(c2cc(C)nc(N(CCCNc3ccnc4cc(Cl)ccc34)Cc3ccc4c(c3)OCO4)n2)CC1`, the GI50 in test [1] is 3.6 µM; in test [2], 1.52 µM; in test [4] it was 1.84 µM; in test [5], 1.87 µM; in test [6] it was 3.07 µM; in test [7] it was 2.88 µM. Further, in test [8], the GI50 was 2.57 µM. Besides, the TGI is more than 100 µM in test [1]; 3.38 µM in test [2]; 3.87 µM in test [4]; 3.5 µM in test [5]; 11.2 µM in test [6]; 21.5 µM in test [7]. Further, the TGI in test [8] came out at 7.9 µM.

For the compound `CCCCCCCCOC(=O)c1c(C)[nH]c(/C=C2\N=C(c3ccc[nH]3)C=C2OC)c1C`, the GI50 in test [1] is 0.0467 µM; in test [2], 0.0535 µM; in test [3] it was less than 0.0214 µM; in test [4] it was 0.0484 µM; in test [5], 0.641 µM; in test [6] it was 0.0765 µM. The GI50 in test [7] is 0.0462 µM; in test [8], 0.0498 µM. The TGI in test [1] was more than 34.8 µM; in test [2], 1.73 µM; in test [3], 4.83 µM; in test [4], 7.29 µM; in test [5], 2.67 µM; in test [6], 11 µM. Also, the values for the TGI in test [7] and in test [8] were 1.67 µM and 7.2 µM, respectively.

In the case of `COc1cccc(CN(C)c2ccc(CO)c(Cl)c2)c1`, the GI50 in test [1] is 30.6 µM; in test [2], 11.2 µM; in test [3], 2.82 µM; in test [5], 25.9 µM; in test [6], 0.97 µM; in test [7] it was 0.504 µM. In addition, the GI50 in test [8] is 44.5 µM. Besides, the TGI in test [1] was more than 100 µM; in test [2], more than 62.2 µM; in test [3], more than 59.3 µM; in test [5], more than 89.7 µM; in test [6], 21 µM; in test [7] it was more than 43.7 µM. Also, the TGI in test [8] is more than 100 µM.

Regarding `COc1ccc(C(=O)c2cc3c(N)c(C(=O)Nc4ccccc4)sc3nc2C)cc1`, the GI50 in test [1] was 2.77 µM; in test [2] it was 0.485 µM; in test [3], 0.656 µM; in test [4] it was 8.04 µM; in test [6], 0.439 µM; in test [7] it was 0.373 µM. The GI50 in test [8] was 3.65 µM. In addition, the TGI in test [1] is more than 100 µM; in test [2], more than 100 µM; in test [3], more than 100 µM; in test [4], more than 100 µM; in test [6] it was 3.93 µM; in test [7], more than 100 µM. Moreover, the TGI in test [8] was more than 100 µM.

In the case of `CCn1c(-c2cc3c([nH]c4ccccc43)c(-c3cccc(O)c3)n2)n[nH]c1=S`, the GI50 is 2.77 µM in test [1]; 2.01 µM in test [2]; 3.64 µM in test [4]; 2.56 µM in test [5]; 3.04 µM in test [6]; 2.79 µM in test [7]. For the same compound, the GI50 in test [8] is 4.04 µM. For the same compound, the TGI in test [1] stood at 13.3 µM; in test [2], 6.5 µM; in test [4], 14.8 µM; in test [5] it was 11.4 µM; in test [6], 10.7 µM; in test [7], 14 µM. Moreover, in test [8], the TGI came out at 17.4 µM.

In the case of `COc1ccc(Nc2nc3ccccc3c3occc23)cc1`, the GI50 in test [1] is 12.9 µM; in test [2] it was 5.42 µM; in test [3], more than 50 µM; in test [4] it was 6.83 µM; in test [6], more than 50 µM; in test [7] it was 7.02 µM. The GI50 in test [8] was 6.55 µM. Moreover, the TGI is more than 50 µM in test [1]; 19.1 µM in test [2]; more than 50 µM in test [3]; 16.4 µM in test [4]; more than 50 µM in test [6]; 27.2 µM in test [7]. This compound also returned a TGI in test [8] of 14.4 µM.

Consider `NS(=O)(=O)c1ccc(N2N=C3c4ccccc4CC3C2c2cccs2)cc1` (centres undefined), for which the GI50 is 22.1 µM in test [1]; 20.6 µM in test [2]; 19.6 µM in test [3]; 13.2 µM in test [4]; more than 100 µM in test [6]; more than 100 µM in test [7]. In addition, in test [8], the GI50 was more than 100 µM. Besides, the TGI in test [1] was 59.5 µM; in test [2], 62.6 µM; in test [3], 38.2 µM; in test [4], 34.1 µM; in test [6], more than 100 µM; in test [7], more than 100 µM. The compound further displayed a TGI in test [8] of more than 100 µM.

Regarding `O=C(O)/C=C\C(=O)Nc1ccccn1`, the TGI in test [1], in test [2], in test [3], in test [5], in test [6] and in test [8] was more than 100 µM in each case.

With `CCc1ccccc1NC(=O)/C=C/c1ccccc1`, the TGI in test [1], in test [3], in test [4], in test [5], in test [6] and in test [7] was more than 100 µM throughout. For the same compound, in test [8], the TGI was more than 100 µM.

`CCOC(=O)c1c(C)n(Cc2ccc(Cl)cc2Cl)c2c1cc1oc(=O)c(=O)n3cnc2c13`: the GI50 is 4.16 µM in test [2]; 17 µM in test [3]; 17.4 µM in test [4]; 10.4 µM in test [5]; 7.78 µM in test [6]; 16.3 µM in test [8]. The TGI in test [2] was 15.3 µM; in test [3], 32.3 µM; in test [4], 33 µM; in test [5], 25.5 µM; in test [6], 20 µM; in test [8] it was 33.3 µM.

Turning to `O=c1cc(-c2ccc(O)cc2)oc2cc(O[C@@H]3O[C@H](CO)[C@@H](O)[C@H](O)[C@H]3O)cc(O)c12`, the TGI in test [1] is more than 100 µM; in test [3] it was 0.718 µM; in test [4], more than 100 µM; in test [6] it was more than 100 µM; in test [7] it was more than 100 µM; in test [8], more than 100 µM.

Turning to `Cc1cc(Nc2nc(C(=O)Nc3ccccc3)nc3ccccc23)n[nH]1`, the GI50 was 3.66 µM in test [2]; 1.87 µM in test [3]; 2.52 µM in test [4]; 13.8 µM in test [5]; 2.29 µM in test [6]; 13 µM in test [7]. Also, the GI50 in test [8] was 9.25 µM. Further, the TGI in test [2], in test [3], in test [4], in test [5], in test [6] and in test [7] was more than 25 µM each time. Moreover, in test [8], the TGI was more than 25 µM.

In the case of `NCCCCC1NC(=O)C(CC(=O)O)NC(=O)CNC(=O)C(CCCN=C(N)N)NC(=O)C(N)CSSCC(C(=O)O)NC(=O)C(CC(=O)O)NC(=O)C2CCCN2C(=O)CNC1=O` (centres undefined), the GI50 in test [2] was more than 100 µM; in test [3], 65.4 µM; in test [4], more than 100 µM; in test [5], more than 100 µM; in test [6] it was more than 100 µM; in test [7] it was more than 100 µM. In addition, in test [8], the GI50 is more than 100 µM. The TGI in test [2], in test [3], in test [4], in test [5], in test [6] and in test [7] was more than 100 µM throughout. The compound further yielded a TGI in test [8] of more than 100 µM.

Take `CSc1ncc(Br)c(Sc2nc(N)nc3nc[nH]c23)n1`: the GI50 in test [2] is 2.97 µM; in test [3] it was 1.84 µM; in test [4] it was 2.45 µM; in test [5], 3.34 µM; in test [6] it was 2.15 µM; in test [7] it was 1.91 µM. Further, the GI50 in test [8] is 3.6 µM. Besides, the TGI in test [2] is 28.5 µM; in test [3] it was 34.1 µM; in test [4], 15.8 µM; in test [5], 18.3 µM; in test [6] it was 13.3 µM; in test [7] it was 11.9 µM. The same compound registered a TGI in test [8] of 85.6 µM.

Take `COC(=O)C12CC(NC(=O)c3csc([C@@H](C[C@H](C(C)C)N(C)C(=O)[C@@H](NC(=O)[C@H]4CCCCN4C)C4CC4)OC(C)=O)n3)(C1)C2`: the GI50 in test [1] is 0.0366 µM; in test [4] it was 1.15 µM; in test [5] it was 0.0357 µM; in test [6], 0.0472 µM; in test [7] it was 0.00813 µM; in test [8], 0.023 µM. The TGI in test [1], in test [4], in test [5], in test [6], in test [7] and in test [8] was more than 16.7 µM each time.

In the case of `O=c1c2cc(-c3ccccc3)sc2ncn1Cc1ccc(Cl)c(Cl)c1`, the GI50 in test [1] is 19.1 µM; in test [2], 17.1 µM; in test [3], 16.4 µM; in test [6], 12.1 µM; in test [7], 12.1 µM; in test [8], 26 µM. Moreover, the TGI is 55.1 µM in test [1]; 48.2 µM in test [2]; 49.1 µM in test [3]; more than 100 µM in test [6]; more than 100 µM in test [7]; 80.3 µM in test [8].
